One assay has as its target T1, human V1a receptor (Homo sapiens, UniProt P37288).
T1 construct: expressed in transfected cells; host or cells: CHO K1 (constitutively expressing modified aequorin)
Description: Cellular in vitro assay for determining the vasopressin receptor activity (aequorin luminescence). The assay is classed as cell-based. Particulars: CHO cell line transfected with the human V1a receptor; agonist [Arg8]-vasopressin; read-out: IC50 hV1a. The source says:
(§1) B-1. Cellular In Vitro Assay for Determining the Vasopressin Receptor Activity
(§2) The identification of agonists and antagonists of the V1a and V2 vasopressin receptors from humans and rats and also the quantification of the activity of the substances described here took place using recombinant cell lines. These cells derive originally from a hamster ovary epithelial cell (Chinese Hamster Ovary, CHO K1, ATCC: American Type Culture Collection, Manassas, Va. 20108, USA). The test cell lines constitutively express a modified form of the calcium-sensitive photoprotein aequorin, which, after reconstitution with the cofactor coelenterazine, emits light when there are increases in the free calcium concentration (Rizzuto R., Simpson A. W., Brini M., Pozzan T.; Nature 358 (1992) 325-327). In addition, the cells are stably transfected with the human or rat V1a or V2 receptors. In the case of the Gs-coupling V2 receptors, the cells are stably transfected with a further gene, which codes for the promiscuous Gα16 protein (Amatruda T. T., Steele D. A., Slepak V. Z., Simon M. I., Proc. Nat. Acad. Sci. USA 88 (1991), 5587-5591), either independently or as a fusion gene. The resulting vasopressin receptor test cells react to stimulation of the recombinantly expressed vasopressin receptors by intracellular release of calcium ions, which can be quantified by the resulting aequorin luminescence using a suitable luminometer (Milligan G., Marshall F., Rees S., Trends in Pharmaco. Sci. 17 (1996) 235-237).
(§3) On the day before the assay, the cells are plated out in culture medium (DMEM, 10% FCS, 2 mM glutamine, 10 mM HEPES) in 384-well microtiter plates and kept in a cell incubator (96% humidity, 5% v/v carbon dioxide, 37° C.). On the day of the assay, the culture medium is replaced by a Tyrode solution (140 mM sodium chloride, 5 mM potassium chloride, 1 mM magnesium chloride, 2 mM calcium chloride, 20 mM glucose, 20 mM HEPES), which additionally contains the cofactor coelenterazine (50 μM), and the microtiter plate is then incubated for a further 3-4 hours. The test substances in various concentrations are placed for 10 to 20 minutes in the wells of the microtiter plate before the agonist [Arg8]-vasopressin is added, and the resulting light signal is measured immediately in the luminometer. The IC50 values are calculated using the GraphPad PRISM computer program (Version 3.02).
(§4) The table below lists representative IC50 values for the compounds of the invention on the cell line transfected with the human V1a or V2 receptor: […]

A further assay addresses T2, human V2 receptor (Homo sapiens, UniProt P30518).
T2 construct: expressed in transfected cells; host or cells: CHO K1 (constitutively expressing modified aequorin; co-transfected with promiscuous G-alpha-16)
The assay is described as above. The class given is cell-based. The note with it: CHO cell line transfected with the human V2 receptor (and Gα16); agonist [Arg8]-vasopressin; read-out: IC50 hV2.
Excerpt: as §1, §2, §3, §4

In general, IC50 refers to the concentration that inhibits the measured activity by half.

T2 sequence (P30518 whole entry): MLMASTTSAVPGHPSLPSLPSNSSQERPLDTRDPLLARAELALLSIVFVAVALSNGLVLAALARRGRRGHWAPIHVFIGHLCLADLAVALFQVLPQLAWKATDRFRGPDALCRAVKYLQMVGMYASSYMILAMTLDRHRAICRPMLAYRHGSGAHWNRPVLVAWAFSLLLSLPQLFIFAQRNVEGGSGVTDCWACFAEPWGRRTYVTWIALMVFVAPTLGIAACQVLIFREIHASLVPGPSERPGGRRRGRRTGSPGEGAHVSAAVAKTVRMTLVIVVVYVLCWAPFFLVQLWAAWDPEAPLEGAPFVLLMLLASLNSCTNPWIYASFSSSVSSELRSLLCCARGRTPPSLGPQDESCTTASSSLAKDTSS
T1 sequence (P37288 whole entry): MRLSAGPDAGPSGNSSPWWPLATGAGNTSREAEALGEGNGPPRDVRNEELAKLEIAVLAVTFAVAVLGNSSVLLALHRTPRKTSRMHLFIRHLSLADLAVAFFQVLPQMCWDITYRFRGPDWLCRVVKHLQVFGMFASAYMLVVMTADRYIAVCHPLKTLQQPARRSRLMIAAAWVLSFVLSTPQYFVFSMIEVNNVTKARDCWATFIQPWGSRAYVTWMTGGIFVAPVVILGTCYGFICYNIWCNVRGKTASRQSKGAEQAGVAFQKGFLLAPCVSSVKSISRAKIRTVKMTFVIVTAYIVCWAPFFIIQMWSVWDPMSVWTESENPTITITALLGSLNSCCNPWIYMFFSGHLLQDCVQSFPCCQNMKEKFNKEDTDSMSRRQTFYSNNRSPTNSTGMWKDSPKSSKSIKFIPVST

As for `C=CCn1c(-c2ccc(Cl)cc2)nn(CC(=O)NC(CO)c2cccc(Cl)c2F)c1=O` (centres unmarked) [Example 168], the IC50 was 87 nM on human V1a receptor and 76 nM at human V2 receptor.

With `Cc1csc(-c2nn(CC(=O)NC(CO)c3cccc(Cl)c3F)c(=O)n2CC(C)C)c1Cl` (centres unmarked) [Example 172], the half-inhibitory concentration (IC50) at human V1a receptor is 91 nM; on human V2 receptor, 136 nM.

In the case of `O=C(Cn1nc(-c2ccc(Cl)cc2)n(CC2CCCCC2)c1=O)NC(CO)c1cccc(Cl)c1F` (centres unmarked) [Example 182], the values for the IC50 on human V1a receptor and at human V2 receptor were 304 nM and 28 nM, respectively.

On to `O=C(Cn1nc(-c2ccc(Cl)cc2)n(Cc2ccccc2F)c1=O)NC(CO)c1cccc(F)c1F` (centres unmarked) [Example 184], for which the IC50 on human V1a receptor turned out to be 72 nM; on human V2 receptor it was 26.6 nM.

Turning to `O=C(Cn1nc(-c2ccc(Cl)s2)n(Cc2ccccc2F)c1=O)NC(CO)c1cccc(F)c1F` (centres unmarked) [Example 185], the results for the IC50 at human V1a receptor and on human V2 receptor were 55 nM and 45 nM, respectively.

For `COc1ccccc1C(CCOC(N)=O)NC(=O)Cn1nc(-c2ccc(Cl)cc2)n(C[C@H](O)C(F)(F)F)c1=O` (stereo partly drawn) [Example 188, 3-[({3-(4-Chlorophenyl)-5-oxo-4-[(2S)-3,3,3-trifluoro-2-hydroxypropyl]-4,5-dihydro-1H-1,2,4-triazol-1-yl}acetyl)amino]-3-(2-methoxyphenyl)propyl carbamate], the IC50 was found to be 8.2 nM on human V1a receptor and 9.9 nM at human V2 receptor.

As to `NC(=O)OCC(NC(=O)Cn1cc(-c2ccc(Cl)cc2)n(CC(O)C(F)(F)F)c1=O)c1ccccc1C(F)(F)F` (centres unmarked) [Example 207, 2-({[4-(4-Chlorophenyl)-2-oxo-3-(3,3,3-trifluoro-2-hydroxypropyl)-2,3-dihydro-1H-imidazol-1-yl]acetyl}amino)-2-[2-(trifluoromethyl)phenyl]ethyl carbamate], the IC50 amounted to 3.3 nM at human V1a receptor and 101 nM at human V2 receptor.

The values are drawn from patent US8796324B2, “Substituted 2-acetamido-5-aryl-1,2,4-triazolones and use thereof” (Bayer Intellectual Property GmbH, priority 2009, dated 2014).
